PubChem BioAssay (NCI)
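48-hour exposure; five concentrations; linearly interpolated endpoints. At the TGI there is no net growth.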

Tests used:
Assay in all cases: NCI anticancer screen, dose series, 48 h
CCRF-CEM leukemia = test system: CCRF-CEM leukemia
HL-60(TB) leukemia = test system: HL-60(TB) leukemia
HOP-92 NSCLC = test system: HOP-92 NSCLC
KM12 colon = test system: KM12 colon
MALME-3M melanoma = test system: MALME-3M melanoma
OVCAR-3 ovarian = test system: OVCAR-3 ovarian
OVCAR-4 ovarian = test system: OVCAR-4 ovarian
OVCAR-5 ovarian = test system: OVCAR-5 ovarian
OVCAR-8 ovarian = test system: OVCAR-8 ovarian
RPMI-8226 leukemia = test system: RPMI-8226 leukemia
RXF 393 renal = test system: RXF 393 renal
SF-268 CNS = test system: SF-268 CNS
SF-295 CNS = test system: SF-295 CNS
SK-MEL-2 melanoma = test system: SK-MEL-2 melanoma
SK-OV-3 ovarian = test system: SK-OV-3 ovarian
SNB-75 CNS = test system: SNB-75 CNS
SW-620 colon = test system: SW-620 colon
TK-10 renal = test system: TK-10 renal
U251 CNS = test system: U251 CNS
HCC-2998 colon = test system: HCC-2998 colon

| SMILES | TGI (CCRF-CEM leukemia) | TGI (HL-60(TB) leukemia) | TGI (HOP-92 NSCLC) | TGI (KM12 colon) | TGI (MALME-3M melanoma) | TGI (OVCAR-3 ovarian) | TGI (OVCAR-4 ovarian) | TGI (OVCAR-5 ovarian) | TGI (OVCAR-8 ovarian) | TGI (RPMI-8226 leukemia) | TGI (RXF 393 renal) | TGI (SF-268 CNS) | TGI (SF-295 CNS) | TGI (SK-MEL-2 melanoma) | TGI (SK-OV-3 ovarian) | TGI (SNB-75 CNS) | TGI (SW-620 colon) | TGI (TK-10 renal) | TGI (U251 CNS) | TGI (HCC-2998 colon) |
| --- | --- | --- | --- | --- | --- | --- | --- | --- | --- | --- | --- | --- | --- | --- | --- | --- | --- | --- | --- | --- |
| O=C1C(Cl)N(c2ccccc2[N+](=O)[O-])C1c1c[nH]c2ccccc12 (stereo not drawn) | > 100 µM | > 100 µM | > 100 µM | > 100 µM | > 100 µM | > 100 µM | > 100 µM | 54.8 µM | > 100 µM | > 100 µM | > 100 µM | > 100 µM | > 100 µM | > 100 µM | > 100 µM | > 100 µM | > 100 µM | > 100 µM | > 100 µM |  |
| O=C(Nc1cccc(O)c1)C(=O)C(C(=O)c1ccccc1F)C1OC(=O)c2ccccc21 (stereo not drawn) | 68.5 µM | 87.7 µM | > 100 µM | 71 µM |  |  | > 100 µM | > 100 µM | 30.5 µM | 87.8 µM | 39.8 µM | 74.7 µM | > 100 µM | 62.2 µM | > 100 µM | 53.1 µM | > 100 µM | > 100 µM | 26.9 µM | 39.4 µM |
| OC1(c2ccc(Cl)cc2)c2ccc3ccccc3c2C2=N[C@H]3CCCC[C@@H]3N21 (stereo partly drawn) | 79.9 µM | > 100 µM | 77.3 µM | > 100 µM | 0.93 µM | 21.9 µM | > 100 µM | 57.2 µM | 3.45 µM | 31 µM | 20.8 µM | > 100 µM | 18.1 µM | > 100 µM | 65.3 µM |  | > 100 µM | 4.87 µM | 27.9 µM |  |
| CCN1CCC(O)(C(C(=O)O)c2ccccc2)CC1 (stereo not drawn) | > 100 µM | > 100 µM |  | > 100 µM | > 100 µM | > 100 µM | > 100 µM | > 100 µM | > 100 µM | > 100 µM | > 100 µM | > 100 µM | > 100 µM | > 100 µM | > 100 µM | > 100 µM | > 100 µM | > 100 µM | > 100 µM | > 100 µM |
| NC(N)=Nc1ncccc1[N+](=O)[O-] | > 100 µM | 44.4 µM | > 100 µM | > 100 µM | > 88 µM | 66.5 µM | > 100 µM | > 100 µM | > 100 µM | > 100 µM | > 100 µM | > 100 µM | > 100 µM | > 100 µM | > 100 µM | > 100 µM | > 100 µM |  | > 31.6 µM | > 100 µM |
| O=[N+]([O-])c1ccc(-c2ccc(-c3csc(Nc4ccccn4)n3)o2)cc1 |  | > 100 µM | > 100 µM | > 100 µM | > 100 µM | > 100 µM | 50 µM | > 100 µM | > 100 µM | > 100 µM |  | > 100 µM | > 100 µM | > 100 µM | > 100 µM | > 100 µM | > 100 µM | 56.1 µM | 28.5 µM | > 100 µM |
| O=c1oc2cc(O)ccc2c(O)c1C(c1ccc(C(c2c(O)c3ccc(O)cc3oc2=O)c2c(O)c3ccc(O)cc3oc2=O)cc1)c1c(O)c2ccc(O)cc2oc1=O | > 100 µM | > 100 µM | > 100 µM |  | > 100 µM | > 100 µM | > 100 µM | > 100 µM | > 100 µM |  | > 100 µM | > 100 µM | > 100 µM | > 100 µM | > 100 µM | > 100 µM | > 100 µM | > 100 µM | > 100 µM | > 100 µM |
| CCC(C(=O)c1ccc(OC)c(OC)c1)N(C(=O)C(F)(F)F)C(C)c1ccccc1 (stereo not drawn) | > 100 µM | > 100 µM |  |  | > 100 µM | > 100 µM |  | > 100 µM | > 100 µM | > 100 µM |  | > 100 µM | > 100 µM |  | > 100 µM |  | > 100 µM | > 100 µM | > 100 µM | > 100 µM |
